Test results published in patent US6486199B1, “Spiro and dispiro 1,2,4-trioxolane antimalarials” (Medicines for Malaria Venture MMV International Centre …, priority 2001, dated 2002).
pIC50: −log10 of the molar value. In brackets after ≈: the same amount, converted by molar mass. Read-outs that look alike come from different tables or passages of the source. Marks after values point to notes of the source that are not given here.

Key:
[1] = system: chloroquine-resistant K1 strain of P. falciparum; assay: in vitro screen against chloroquine-resistant K1 strain of P. falciparum; type: cell-based; conditions: for IC50: Plasmodium falciparum, K1, read-out: IC50 (ng/ml) K1
[2] = system: chloroquine-sensitive NF54 strain of P. falciparum; assay: in vitro screen against chloroquine-sensitive NF54 strain of P. falciparum; type: cell-based; conditions: for IC50: Plasmodium falciparum, NF54, read-out: IC50 (ng/ml) NF54
[3] = system: ANKA strain of P. Berghei; assay: single dose STI in vivo screen in infected Moro SPF mice; conditions: for inhibition in vivo at 10 mg/kg: Plasmodium berghei, 72 h
P. berghei = assay: 1-day Peters test against P. berghei in vivo; conditions: for ED50 / ED90: Plasmodium berghei, 24 h; for ED90: read-out: P. berghei (1 day) ED90 po
parasitemia = assay: onset of drug action and recrudescence after single oral dose; type: in vivo
Experimental: The reduction of parasitemia was monitored 12 h after treatment, and the time of recrudescence was assessed by daily blood smears for 14 days, followed by intermittent assessment for up to 30 days.

NB2a cell line = assay: neurotoxicity against the NB2a cell line; type: cell-based; conditions: NB2a cell line
[4] = system: 21-day-old schistosomules of Schistosoma mansoni; assay: effect on 21-day-old schistosomules in mice; type: in vivo; conditions: single 200 mg/kg per os; for FWR (%): female worm reduction rate; for Mean female worm burden: mean ± standard deviation; for TWR (%): total worm reduction rate
Experimental: […] Each group was treated per os with OZ compounds at a single dose of 200 mg/kg. Untreated mice served as the control. All groups were killed 4 weeks after treatment and the liver and intestine were removed and separated. The liver and intestine were compressed and alive male and female worms could be seen and counted. The effect of the compounds was evaluated by mean total and female worm burden.

[5] = differential scanning calorimetry (DSC), thermal stability; type: physicochemical; conditions: thermal decomposition
[6] = system: adult schistosomes (49-day-old) of Schistosoma mansoni; assay: effect on adult schistosomes (49-day-old) in mice; type: in vivo; conditions: dose used was 200 mg/kg
[7] = system: adult schistosomes (49-day-old) of Schistosoma mansoni; assay: effect on adult schistosomes (49-day-old) in mice; type: in vivo; conditions: single 400 mg/kg per os; for TWR (%): total worm reduction rate; for Mean total worm burden: x ± SD
Experimental: Mice were infected with 100 Schistosoma mansoni cercariae […]. Each group was treated per os with OZ compounds at a single dose of 400 mg/kg. Untreated mice served as the control. All groups were killed 4 weeks after treatment and the liver and intestine were removed and separated. The liver and intestine were compressed and alive male and female worms could be seen and counted.

[8] = po, read-out: P. berghei (1 day) ED50 po
[9] = sc, read-out: P. berghei (1 day) ED50 sc

`C[C@H]1[C@H](OC(=O)CCC(=O)O)O[C@@H]2O[C@@]3(C)CC[C@H]4[C@H](C)CC[C@@H]1[C@@]24OO3` [Artesunate, artesunate, reference compound] gave an IC50 [1] of 1.2 ng/mL (≈ 0.00312 µM), an IC50 [2] of 1.2 ng/mL (≈ 0.00312 µM) and an inhibition in vivo at 10 mg/kg ([3]; po, read-out: Activity (%) po) of 83.3%. For the same compound, the inhibition in vivo at 10 mg/kg ([3]; sc, read-out: Activity (%) sc) was 81.1%, the “Survival (days) po” value ([3]; single 10 mg/kg po) was 7.1 days and the “Survival (days) sc” value ([3]; single 10 mg/kg sc) was 8.0 days. For the same compound, the “P. berghei (1 day) ED90 sc” value (P. berghei; sc) was 16 mg/kg, the ED50 (P. berghei; [8]) was 5 mg/kg and the ED90 (P. berghei; po) was 13 mg/kg. For the same compound, the ED50 (P. berghei; [9]) was 0.86 mg/kg, the “Recrudescence (>5% parasitemia) occurs on day” value (parasitemia; single 100 mg/kg po on day +3 post-infection) was 2 days and the “onset of action: decline in parasitemia” value (parasitemia; single 100 mg/kg po, monitored 12 h after treatment) was “rapid decline in parasitemia”.

In the case of `CCOC(=O)CCC1CCCCC12OOC1(O2)C2CC3CC(C2)CC1C3` (centres unmarked) [OZ08, Adamantane-2-spiro-3′-6′-[2′-(ethoxycarbonyl)ethyl]-1′,2′,4′-trioxaspiro[4.5]decane], the “antimalarial activity, overall assessment” value ([3]; overall judgement of in vitro and in vivo data of Table 2) was “more active” and the pIC50 (NB2a cell line) was 4.38.

For `O=C1C2C3CC4C5C3C1C5C1(OOC3(O1)C1CC5CC(C1)CC3C5)C42` (centres unmarked) [OZ14, Adamantane-2-spiro-3′-1′,2′,4′-trioxolane-5′-spiro-8″-11″-oxopentacyclo[5.4.0.0^2″,6″.0^3″,10″.0^5″,9″]undecane], the “FWR (%)” value [4] was 0%, the “Mean female worm burden” value [4] was 12.4 ± 4.2 and the “TWR (%)” value [4] was 7%. For the same compound, the “Tm dec. (° C.)” value [5] was 113.3 °C, the “Percentage of dead worm” value [6] was 0 and the Total dead worm [6] was 0. For the same compound, the “TWR (%)” value ([6]; total worm reduction rate) was 0% and the “Mean total worm burden” value ([6]; x ± SD) was 44.5 ± 13.2.

For `O=C1CCC2(CCO1)OOC1(O2)C2CC3CC(C2)CC1C3` (centres unmarked) [OZ17, Adamantane-2-spiro-3′-9′-oxo-1′,2′,4′,8′-tetraoxaspiro[4.6]undecane], the “IC50 (ng/ml) K1” value ([1]; in vitro, K1 strain) was 85 ng/mL (≈ 0.289 µM), the “IC50 (ng/ml) NF54” value ([2]; in vitro, NF54 strain) was > 100 ng/mL and the “FWR (%)” value [4] was 7%. For the same compound, the “Mean female worm burden” value [4] was 11.6 ± 3.3^a, the “TWR (%)” value [4] was 23% and the “Percentage of dead worm” value [7] was 5.2 (10/191). The Total dead worm [7] was 10, the “TWR (%)” value [7] was 0% and the “Mean total worm burden” value [7] was 36.2 ± 13.8. The “Tm dec. (° C.)” value [5] was 158.4 °C.

For `C1CCCCCC2(CCCCC1)OOC1(O2)C2CC3CC(C2)CC1C3` (centres unmarked) [OZ20, Adamantane-2-spiro-3′-1′,2′,4′-trioxaspiro[4.11]hexadecane], the IC50 [1] was 15 ng/mL (≈ 0.043 µM), the “in vitro potency, fold less potent than the analog” value ([1]; in vitro) was “order of magnitude” and the IC50 [2] was 20 ng/mL (≈ 0.0574 µM). The “P. berghei (1 day) ED90 sc” value (P. berghei; sc) was 10 mg/kg, the ED50 (P. berghei; [8]) was 4.3 mg/kg and the ED90 (P. berghei; po) was 9.7 mg/kg. The ED50 (P. berghei; [9]) was 7.1 mg/kg, the “FWR (%)” value [4] was 0% and the “Mean female worm burden” value [4] was 13.8 ± 5.5. The “TWR (%)” value [4] was 0%, the “Percentage of dead worm” value [7] was 0 and the Total dead worm [7] was 0. The “TWR (%)” value [7] was 0%, the “Mean total worm burden” value [7] was 38.6 ± 3.6 and the “Tm dec. (° C.)” value [5] was 170.5 °C.
